Assay results published in patent US10647679B2, “N-methyl-D-aspartate receptor (NMDAR) potentiators, pharmaceutical compositions, and uses related thereto” (Emory University, priority 2015, dated 2020).
Where two headings read alike, the source gives them in different places. Each block holds one compound with its values, some of them ahead of it.

Legend:
Format in all cases: cell-based
[1] = target: T1, recombinant rat GluN1/GluN2D (Rattus norvegicus, UniProt Q62645); assay: Two-electrode voltage-clamp (TEVC) recordings in Xenopus laevis oocytes, GluN1/GluN2D; conditions: for I30 μM/Icontrol (mean ± SEM, %) GluN2D: 30 μM compound, Tables 5-7
T1 construct: expressed in transfected cells; host or cells: Xenopus laevis oocytes (Ecocyte) injected with in vitro transcribed cRNA
T1 sequence (Q62645 28-1323, other chains not shown): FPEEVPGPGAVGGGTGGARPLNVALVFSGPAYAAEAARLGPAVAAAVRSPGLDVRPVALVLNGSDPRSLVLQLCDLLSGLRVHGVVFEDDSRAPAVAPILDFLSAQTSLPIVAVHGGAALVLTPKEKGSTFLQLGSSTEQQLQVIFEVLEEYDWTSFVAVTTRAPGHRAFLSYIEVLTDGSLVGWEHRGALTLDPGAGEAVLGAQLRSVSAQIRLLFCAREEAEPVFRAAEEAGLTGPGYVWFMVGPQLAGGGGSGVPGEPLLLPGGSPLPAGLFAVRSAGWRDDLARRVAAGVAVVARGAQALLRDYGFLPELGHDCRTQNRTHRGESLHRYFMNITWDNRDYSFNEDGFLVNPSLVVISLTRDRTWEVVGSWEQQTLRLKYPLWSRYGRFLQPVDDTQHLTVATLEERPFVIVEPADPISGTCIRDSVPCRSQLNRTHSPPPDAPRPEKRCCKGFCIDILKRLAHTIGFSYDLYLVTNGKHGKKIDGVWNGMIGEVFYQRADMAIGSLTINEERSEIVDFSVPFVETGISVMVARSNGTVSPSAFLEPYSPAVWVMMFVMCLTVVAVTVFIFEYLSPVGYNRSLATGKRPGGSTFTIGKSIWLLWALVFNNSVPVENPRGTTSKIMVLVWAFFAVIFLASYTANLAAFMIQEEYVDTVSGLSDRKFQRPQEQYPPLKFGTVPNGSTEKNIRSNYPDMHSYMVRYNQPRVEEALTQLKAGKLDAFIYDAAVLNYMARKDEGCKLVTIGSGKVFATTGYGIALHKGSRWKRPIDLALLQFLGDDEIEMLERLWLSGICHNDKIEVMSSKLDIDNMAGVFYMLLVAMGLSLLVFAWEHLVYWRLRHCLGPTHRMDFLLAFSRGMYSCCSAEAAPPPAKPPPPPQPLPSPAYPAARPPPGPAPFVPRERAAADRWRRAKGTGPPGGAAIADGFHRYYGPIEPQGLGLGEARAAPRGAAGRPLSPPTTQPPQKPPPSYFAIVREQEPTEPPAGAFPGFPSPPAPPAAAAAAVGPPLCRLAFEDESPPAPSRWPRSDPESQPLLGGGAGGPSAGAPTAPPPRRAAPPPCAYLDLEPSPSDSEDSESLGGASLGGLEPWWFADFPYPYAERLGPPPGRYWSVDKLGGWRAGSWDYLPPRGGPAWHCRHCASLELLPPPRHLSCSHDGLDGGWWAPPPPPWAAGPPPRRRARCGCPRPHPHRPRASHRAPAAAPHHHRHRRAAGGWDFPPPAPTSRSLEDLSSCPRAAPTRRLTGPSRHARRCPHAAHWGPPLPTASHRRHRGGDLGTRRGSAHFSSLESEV
Description: (§1) Data are from between 3-26 oocytes from 2-5 frogs for each compound and receptor tested.
(§2) Two-electrode voltage-clamp recordings were performed in Xenopus laevis oocytes (Ecocyte) expressing recombinant rat GluN1/GluN2A, GluN1/GluN2B, GluN1/GluN2C, GluN1/GluN2D. cRNA was transcribed in vitro (Ambion), diluted with nuclease free water, and injected at a ratio of 1:2 GluN1:GluN2 (5-10 ng total cRNA). The oocytes were kept in Barth's solution comprised of (in mM) 88 NaCl, 5 Tris-HCl, 2.4 NaHCO3, 1 KCl, 0.84 MgSO4, 0.41 CaCl2, and 0.33 Ca(NO3)2 at pH 7.4 at 15-17° C. for two to five days before experiments. Oocytes were placed into a perfusion chamber and continually washed with recording solution containing (in mM) 90 NaCl, 1.0 KCl, 0.5 BaCl2, 0.005 EDTA, and 10 HEPES at pH 7.4 (23° C.). Voltage clamp recordings were conducted at a holding potential of −40 mV. All compounds were made as 20 mM stock solutions in DMSO and dissolved to reach the final concentration in recording solution. Final DMSO content was 0.05-0.5% (vol/vol). Some oocytes expressing GluN1/GluN2A were pretreated with […] BAPTA-AM for 10 minutes or injected with […] of 2 mM K-BAPTA to prevent gradual run-up of the current response.

[2] = target: T2, recombinant rat GluN1/GluN2C (Rattus norvegicus, UniProt Q00961); assay: Two-electrode voltage-clamp (TEVC) recordings in Xenopus laevis oocytes, GluN1/GluN2C; conditions: for I30 μM/Icontrol (mean ± SEM, %) GluN2C: 30 μM compound, Tables 5-7
T2 construct: expressed in transfected cells; host or cells: Xenopus laevis oocytes (Ecocyte) injected with in vitro transcribed cRNA
Description: as §1, §2

[3] = target: T3, recombinant rat GluN1/GluN2B (Rattus norvegicus, UniProt Q00960); assay: Two-electrode voltage-clamp (TEVC) recordings in Xenopus laevis oocytes, GluN1/GluN2B; conditions: for I30 μM/Icontrol (mean ± SEM, %) GluN2B: 30 μM compound, Tables 5-7
T3 construct: expressed in transfected cells; host or cells: Xenopus laevis oocytes (Ecocyte) injected with in vitro transcribed cRNA
T3 sequence (Q00960 27-1482, other chains not shown): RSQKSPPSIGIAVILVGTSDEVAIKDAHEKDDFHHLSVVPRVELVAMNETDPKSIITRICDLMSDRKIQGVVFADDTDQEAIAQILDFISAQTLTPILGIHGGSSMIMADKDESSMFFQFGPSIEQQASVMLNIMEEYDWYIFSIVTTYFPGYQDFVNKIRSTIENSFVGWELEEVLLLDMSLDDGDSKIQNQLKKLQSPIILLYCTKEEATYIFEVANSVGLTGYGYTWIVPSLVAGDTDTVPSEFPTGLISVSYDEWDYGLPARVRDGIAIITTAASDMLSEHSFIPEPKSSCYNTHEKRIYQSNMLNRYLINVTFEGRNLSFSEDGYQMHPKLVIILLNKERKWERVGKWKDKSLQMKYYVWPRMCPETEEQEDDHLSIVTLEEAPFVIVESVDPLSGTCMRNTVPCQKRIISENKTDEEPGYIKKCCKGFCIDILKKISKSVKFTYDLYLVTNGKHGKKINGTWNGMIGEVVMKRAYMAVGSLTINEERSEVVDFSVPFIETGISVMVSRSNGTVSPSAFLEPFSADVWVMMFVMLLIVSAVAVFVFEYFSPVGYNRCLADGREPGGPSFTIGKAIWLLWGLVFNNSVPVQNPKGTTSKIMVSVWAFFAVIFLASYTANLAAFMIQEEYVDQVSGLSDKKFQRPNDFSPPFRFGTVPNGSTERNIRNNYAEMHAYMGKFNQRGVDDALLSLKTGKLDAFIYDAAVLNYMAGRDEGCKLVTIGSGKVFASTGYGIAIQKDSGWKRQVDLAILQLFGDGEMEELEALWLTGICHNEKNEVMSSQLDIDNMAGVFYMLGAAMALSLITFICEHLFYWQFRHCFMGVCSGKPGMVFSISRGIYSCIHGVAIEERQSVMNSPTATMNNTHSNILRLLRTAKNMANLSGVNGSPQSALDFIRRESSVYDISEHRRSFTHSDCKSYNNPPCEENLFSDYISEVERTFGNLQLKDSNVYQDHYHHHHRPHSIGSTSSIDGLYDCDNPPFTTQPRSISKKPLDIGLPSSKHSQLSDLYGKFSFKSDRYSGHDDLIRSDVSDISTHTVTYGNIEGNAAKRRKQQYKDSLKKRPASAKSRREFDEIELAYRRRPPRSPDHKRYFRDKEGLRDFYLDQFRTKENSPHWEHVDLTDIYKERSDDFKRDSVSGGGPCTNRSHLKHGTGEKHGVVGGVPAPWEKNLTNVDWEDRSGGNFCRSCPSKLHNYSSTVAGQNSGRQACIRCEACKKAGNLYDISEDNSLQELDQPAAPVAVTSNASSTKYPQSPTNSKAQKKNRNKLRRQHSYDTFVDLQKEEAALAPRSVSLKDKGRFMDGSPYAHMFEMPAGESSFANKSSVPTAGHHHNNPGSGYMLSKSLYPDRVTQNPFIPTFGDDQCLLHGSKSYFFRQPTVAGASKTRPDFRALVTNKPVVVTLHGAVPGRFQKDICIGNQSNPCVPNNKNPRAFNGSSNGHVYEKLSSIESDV
Description: as §1, §2

[4] = target: T4, recombinant rat GluN1/GluN2C (Rattus norvegicus, UniProt P35439+Q00961); assay: Two-electrode voltage-clamp (TEVC) recordings in Xenopus laevis oocytes, GluN1/GluN2C
T4 construct: expressed in transfected cells; host or cells: Xenopus laevis oocytes (Ecocyte) injected with in vitro transcribed cRNA
Description: as §1, §2

[5] = target: T5, recombinant rat GluN1/GluN2B (Rattus norvegicus, UniProt P35439+Q00960); assay: Two-electrode voltage-clamp (TEVC) recordings in Xenopus laevis oocytes, GluN1/GluN2B
T5 construct: expressed in transfected cells; host or cells: Xenopus laevis oocytes (Ecocyte) injected with in vitro transcribed cRNA
T5 sequence (Q00960 27-1482, other chains not shown): as above
Description: as §1, §2

[6] = untitled tables after drawing 25 and drawing 36, read-out: EC50 (μM) GluN2C
[7] = fitted when potentiation at 30 μM exceeded 120%, Tables 3, 5-7, read-out: EC50 (max.) (μM %) GluN2B: fitted EC50
[8] = maximum potentiation, response without modulator = 100%
[9] = percentage of the initial glutamate (100 μM) and glycine (30 μM) current

Compound: COc1ccc(OCC2c3cc(OC)c(OC)cc3CCN2C(=S)c2cccc(Cl)c2)cc1 (racemic) [1180-161]
- EC50 & Max Effect: 2D (μM) [1]: Inactive
- EC50 & Max Effect: 2C (μM) [2]: Inactive

Compound: COc1ccc(OCC2c3cc(O)c(OC)cc3CCN2C(=O)C=CC(F)(F)F)cc1 (stereo not drawn) [1180-328]
- GluN2D response % at 30 µM [1]: 120 at 30%
- GluN2C response % at 30 µM [2]: 109 at 30%
- GluN2B response % at 30 µM [3]: 100 at 30%

Compound: COc1ccc(OCC2c3ccc(OC)cc3CCN2C(=O)c2coc(Cl)n2)cc1 (stereo not drawn) [1180-247]
- GluN2D response % at 100 μM ([1]; at 100 μM): 223% at 100
- EC50 [4, 6]: 65 µM
- GluN2B response % at 30 µM [3]: 99% at 30

Compound: COc1ccc(OCC2c3cc(OC)c(OC)cc3CCN2C(=S)c2cccc(Br)c2)cc1 (racemic) [1180-157]
- EC50 & Max Effect: 2D (μM) [1]: Inactive
- EC50 & Max Effect: 2C (μM) [2]: Inactive

Compound: CCOc1ccc(OCC2c3ccc(OC(C)C)cc3CCN2C(=O)c2cccc(C(F)(F)F)c2)cc1 (stereo not drawn) [1180-92]
- EC50 [5, 7]: 2.5 µM
- Emax ([5]; percentage of the initial glutamate (100 μM) and glycine (30 μM) current, read-out: EC50 (max.) (μM %) GluN2B: fitted maximum response): 122%

Compound: CCOc1ccc(OCC2c3ccc(OC4CCCC4)cc3CCN2C(=S)c2cccc(F)c2)cc1 (racemic) [1180-162]
- EC50 & Max Effect: 2D Max (%) [1]: 295%
- EC50 ([1]; read-out: EC50 & Max Effect: 2D): 0.39 µM
- EC50 & Max Effect: 2C Max (%) [2]: 218%
- EC50 ([2]; read-out: EC50 & Max Effect: 2C): 0.26 µM

Compound: COc1ccc(OC[C@H]2c3cc(OC)c(OC)cc3CCN2C(=O)c2cccc(Cl)c2)cc1 [R-1390]
- EC50 & Max Effect: 2D (μM) [1]: Inactive
- EC50 & Max Effect: 2C (μM) [2]: Inactive

Compound: CC=CCC(=O)N1CCc2cc(OC)ccc2C1COc1ccc(OC)cc1 (stereo not drawn) [1180-235]
- GluN2D response % at 30 µM [1]: 222% at 30
- GluN2C response % at 30 µM [2]: 184% at 30
- GluN2B response % at 30 µM [3]: 103% at 30

The next lines start with the values.

- EC50 ([1]; untitled tables after drawing 25 and drawing 36, read-out: EC50 (μM) GluN2D): 9 µM
- EC50 [2, 6]: 7 µM
- GluN2B response % at 30 µM [3]: 101% at 30
Compound: COc1ccc(OCC2c3ccc(OC)cc3CCN2C(=O)C=CC(F)(F)F)cc1 (stereo not drawn) [1180-253]

- Emax ([4]; maximum potentiation, response without modulator = 100%, read-out: GluN2C EC50 (μM)/Max %: Max %): 125%
- Emax ([5]; maximum potentiation, response without modulator = 100%, read-out: GluN2B EC50 (μM)/Max %: Max %): 141%
Compound: CCOc1ccc(OCC2c3ccc(OC(C)C)cc3CCN2C(=O)c2cccc(Cl)c2)cc1 (stereo not drawn) [1180-83]

- GluN2C response % at 10 μM ([2]; at 10 μM, Table 9): 142% at 10 μM
Compound: CCOc1ccc(OCC2c3ccc(OC(C)C)cc3CCN2S(=O)(=O)c2cccc(Cl)c2)cc1 (stereo not drawn) [1180-199]

- GluN2D response % at 30 µM [1]: 131% at 30
- GluN2C response % at 30 µM [2]: 114% at 30
- GluN2B response % at 30 µM [3]: 88% at 30
Compound: COc1ccc(OCC2c3ccc(OC)cc3CCN2C(=O)c2cnc(Cl)s2)cc1 (stereo not drawn) [1180-241]

- I30 μM/Icontrol (mean ± SEM, %) GluN2D [1]: 75%
- I30 μM/Icontrol (mean ± SEM, %) GluN2C [2]: 73%
- I30 μM/Icontrol (mean ± SEM, %) GluN2B [3]: 75%
Compound: CCOc1ccc(OC[C@H]2c3ccc(OC(C)C)cc3CCN2C(=O)c2cccc(C(F)(F)F)c2)cc1 [(R)-(+)-1180-92]

- GluN2D response % at 30 µM [1]: 146% at 30
- GluN2C response % at 30 µM [2]: 165% at 30
- GluN2B response % at 30 µM [3]: 145% at 30
Compound: CCOc1ccc(OCC2c3ccc(OC(C)C)cc3CCN2C(=O)C=C(C)C(F)(F)F)cc1 (stereo not drawn) [1180-263]

- I30 μM/Icontrol (mean ± SEM, %) GluN2D [1]: 154%
- EC50 ([1]; fitted when potentiation at 30 μM exceeded 120%, Tables 3, 5-7, read-out: EC50 (max.) (μM %) GluN2D: fitted EC50): 1.2 µM
- GluN2D EC50 (μM)/Max %: Max % [1, 8]: 159%
- EC50 (max.) (μM %) GluN2D: fitted maximum response [1, 9]: (153%)
- I30 μM/Icontrol (mean ± SEM, %) GluN2C [2]: 166%
- EC50 ([2]; fitted when potentiation at 30 μM exceeded 120%, Tables 3, 5-7, read-out: EC50 (max.) (μM %) GluN2C: fitted EC50): 1.4 µM
- GluN2C EC50 (μM)/Max %: Max % [2, 8]: 191%
- EC50 (max.) (μM %) GluN2C: fitted maximum response [2, 9]: (145%)
- I30 μM/Icontrol (mean ± SEM, %) GluN2B [3]: 184%
- EC50 [3, 7]: 0.7 µM
- GluN2B EC50 (μM)/Max %: Max % [3, 8]: 200%
- EC50 (max.) (μM %) GluN2B: fitted maximum response [3, 9]: (190%)
Compound: CCOc1ccc(OCC2c3ccc(OC(C)C)cc3CCN2C(=S)c2cccc(F)c2)cc1 (racemic) [1180-154]

- I30 μM/Icontrol (mean ± SEM, %) GluN2D [1]: 93%
- I30 μM/Icontrol (mean ± SEM, %) GluN2C [2]: 92%
- I30 μM/Icontrol (mean ± SEM, %) GluN2B [3]: 83%
Compound: CCOc1ccc(OC[C@H]2c3ccc(OC(C)C)cc3CCN2C(=O)c2ccc(Cl)c(Cl)c2)cc1 [(R)-(+)-1180-103]
